# Assay results taken from PMC4965013, “Open Source Drug Discovery with the Malaria Box Compound Collection for Neglected Diseases and Beyond” (PLoS Pathogens, 2016).
# Experiments:
# [1] = test system: P. falciparum 3D7 trophozoites; assay: Metabolomic fingerprint profiling LC-MS; format: cell-based, Plasmodium falciparum; design: UDP-D-glucose / ADP-D-glucose: unit not given here; settings: for Acetyllysine / N-acetyl-L-ornithine / N-carbamoyl-L-aspartate / NADPH / dAMP / dCMP / dTDP / dTMP / dTTP / dihydroorotate / orotate / DLH / DLS/SDL/SID / PD / PEE / PVNF / 3-phosphoglycerate / ADP-D-glucose / ATP / CDP / D-sedoheptulose-1/7-phosphate / FAD / GMP / NAD+ / NADP+ / Octoluse Bisphosphate / Pyroglutamic acid / UDP-D-glucose / UDP-D-glucuronate / UDP-N-acetyl-glucosamine / UDP / UMP / UTP / a-ketoglutarate / citrate/isocitrate / cytidine / dATP / dGMP/AMP / fumarate / glucose-1/6-phosphate / glycerate / guanine / guanosine / hypoxanthine / indole / inosine / nicotinate / ornithine / phosphoenolpyruvate / pyruvate / ribose-phosphate / sarcosine/alanine / sn-glycerol-3-phosphate / succinate/methylmalonic acid / uridine / xanthosine: S2 Table Metabolomics; for Acetyllysine: metabolite Acetyllysine; for N-acetyl-L-ornithine: metabolite N-acetyl-L-ornithine; for N-carbamoyl-L-aspartate: metabolite N-carbamoyl-L-aspartate; for NADPH: metabolite NADPH; for dAMP: metabolite dAMP; for dCMP: metabolite dCMP; for dTDP: metabolite dTDP; for dTMP: metabolite dTMP; for dTTP: metabolite dTTP; for dihydroorotate: metabolite dihydroorotate; for orotate: metabolite orotate; for DLH: peptide DLH; for DLS/SDL/SID: peptide DLS/SDL/SID; for PD: peptide PD; for PEE: peptide PEE; for PVNF: peptide PVNF; for 3-phosphoglycerate: metabolite 3-phosphoglycerate; for ADP-D-glucose: metabolite ADP-D-glucose; for ATP: metabolite ATP; for CDP: metabolite CDP; for CDP / D-sedoheptulose-1/7-phosphate / GMP / Octoluse Bisphosphate / UDP / UMP / UTP / citrate/isocitrate / dGMP/AMP / fumarate / glucose-1/6-phosphate / glycerate / guanine / guanosine / inosine / pyruvate / sarcosine/alanine / succinate/methylmalonic acid / uridine / xanthosine: change in metabolite level after compound treatment; for D-sedoheptulose-1/7-phosphate: metabolite D-sedoheptulose-1/7-phosphate; for FAD: metabolite FAD; for GMP: metabolite GMP; for NAD+: metabolite NAD+; for NADP+: metabolite NADP+; for Octoluse Bisphosphate: metabolite Octoluse Bisphosphate; for Pyroglutamic acid: metabolite Pyroglutamic acid; for UDP-D-glucose: metabolite UDP-D-glucose; for UDP-D-glucuronate: metabolite UDP-D-glucuronate; for UDP-N-acetyl-glucosamine: metabolite UDP-N-acetyl-glucosamine; for UDP: metabolite UDP; for UMP: metabolite UMP; for UTP: metabolite UTP; for a-ketoglutarate: metabolite a-ketoglutarate; for citrate/isocitrate: metabolite citrate/isocitrate; for cytidine: metabolite cytidine; for dATP: metabolite dATP; for dGMP/AMP: metabolite dGMP/AMP; for fumarate: metabolite fumarate; for glucose-1/6-phosphate: metabolite glucose-1/6-phosphate; for glycerate: metabolite glycerate; for guanine: metabolite guanine; for guanosine: metabolite guanosine; for hypoxanthine: metabolite hypoxanthine; for indole: metabolite indole; for inosine: metabolite inosine; for 2_3-Diphosphoglyceric acid / 4-phosphopantothenate / 6-phospho-D-gluconate / FMN / IMP / Pyrophosphate / Sedoheptoluse bisphosphate / cyclic-AMP / glutathione disulfide / lactate / myo-inositol: metabolite level change after treatment; for nicotinate: metabolite nicotinate; for ornithine: metabolite ornithine; for phosphoenolpyruvate: metabolite phosphoenolpyruvate; for pyruvate: metabolite pyruvate; for ribose-phosphate: metabolite ribose-phosphate; for sarcosine/alanine: metabolite sarcosine/alanine; for sn-glycerol-3-phosphate: metabolite sn-glycerol-3-phosphate; for succinate/methylmalonic acid: metabolite succinate/methylmalonic acid; for uridine: metabolite uridine; for xanthosine: metabolite xanthosine
# P. falciparum = assay: EC50 listed in S2 Table Metabolomics (used to set the concentration tested); format: cell-based; settings: Plasmodium falciparum; EC50 used for Factor_XEC50 in metabolomics; read-out: EC50_nM
compound,measurement,setting,value
COc1ccc(-c2c(C)nn3c(N)c(C#N)cnc23)cc1OC [MMV396797],Acetyllysine,[1],-1.561
same,N-acetyl-L-ornithine,[1],-1.053
same,N-carbamoyl-L-aspartate,[1],1.252
same,NADPH,[1],0.3593
same,dAMP,[1],0.5405
same,dCMP,[1],1.351
same,dTDP,[1],0.6464
same,dTMP,[1],1.055
same,dTTP,[1],0.1329
same,dihydroorotate,[1],0.9521
same,orotate,[1],-0.1403
same,DLH,[1],-2.487
same,DLS/SDL/SID,[1],-1.077
same,PD,[1],-0.9589
same,PEE,[1],-1.335
same,PVNF,[1],-1.44
same,3-phosphoglycerate,[1],-0.332
same,ADP-D-glucose,[1],0.000409
same,ATP,[1],-0.6534
same,CDP,[1],0.6836
same,D-sedoheptulose-1/7-phosphate,[1],0.6682
same,FAD,[1],0.02733
same,GMP,[1],0.6724
same,NAD+,[1],0.9649
same,NADP+,[1],0.1001
same,Octoluse Bisphosphate,[1],-0.3618
same,Pyroglutamic acid,[1],-0.2754
same,UDP-D-glucose,[1],0.1529
same,UDP-D-glucuronate,[1],0.1151
same,UDP-N-acetyl-glucosamine,[1],0.3642
same,UDP,[1],0.7706
same,UMP,[1],0.7638
same,UTP,[1],0.02297
same,a-ketoglutarate,[1],-0.2189
same,citrate/isocitrate,[1],-0.742
same,cytidine,[1],-0.8311
same,dATP,[1],-0.6595
same,dGMP/AMP,[1],0.1443
same,fumarate,[1],-0.5921
same,glucose-1/6-phosphate,[1],0.3476
same,glycerate,[1],-0.7107
same,guanine,[1],-0.1249
same,guanosine,[1],-0.2185
same,hypoxanthine,[1],-0.6773
same,indole,[1],-0.01428
same,inosine,[1],-0.2482
same,2_3-Diphosphoglyceric acid,[1],0.4884
same,4-phosphopantothenate,[1],0.5554
same,6-phospho-D-gluconate,[1],0.1152
same,FMN,[1],0.2278
same,IMP,[1],0.7032
same,Pyrophosphate,[1],0.391
same,Sedoheptoluse bisphosphate,[1],-0.2371
same,cyclic-AMP,[1],0.5443
same,glutathione disulfide,[1],0.05378
same,lactate,[1],-0.5978
same,myo-inositol,[1],-0.8022
same,nicotinate,[1],0.06441
same,ornithine,[1],-0.4887
same,phosphoenolpyruvate,[1],-0.1659
same,pyruvate,[1],-0.5507
same,ribose-phosphate,[1],-0.3757
same,sarcosine/alanine,[1],-0.5535
same,sn-glycerol-3-phosphate,[1],-0.1272
same,succinate/methylmalonic acid,[1],-0.001406
same,uridine,[1],-0.3835
same,xanthosine,[1],-0.6585
same,EC50,P. falciparum,477 nM
CCOC(=O)c1c(C)n(-c2ccc(Cl)cc2)c2ccc(OC(=O)C=Cc3ccccc3)cc12 [MMV666600],Acetyllysine,[1],0.2658
same,N-acetyl-L-ornithine,[1],0.3826
same,N-carbamoyl-L-aspartate,[1],0.5043
same,NADPH,[1],-0.1791
same,dAMP,[1],0.1797
same,dCMP,[1],0.7303
same,dTDP,[1],0.6846
same,dTMP,[1],0.3563
same,dTTP,[1],0.1062
same,dihydroorotate,[1],0.2265
same,orotate,[1],0.0746
same,DLH,[1],0.4837
same,DLS/SDL/SID,[1],0.1278
same,PD,[1],0.2139
same,PEE,[1],0.4962
same,PVNF,[1],0.206
same,3-phosphoglycerate,[1],0.1223
same,ADP-D-glucose,[1],0.3003
same,ATP,[1],0.3662
same,CDP,[1],0.7598
same,D-sedoheptulose-1/7-phosphate,[1],0.476
same,FAD,[1],0.1354
same,GMP,[1],-0.291
same,NAD+,[1],0.8191
same,NADP+,[1],0.2752
same,Octoluse Bisphosphate,[1],0.3013
same,Pyroglutamic acid,[1],0.03669
same,UDP-D-glucose,[1],0.1154
same,UDP-D-glucuronate,[1],0.1408
same,UDP-N-acetyl-glucosamine,[1],0.05839
same,UDP,[1],0.7125
same,UMP,[1],0.02013
same,UTP,[1],0.206
same,a-ketoglutarate,[1],-0.01449
same,citrate/isocitrate,[1],0.5294
same,cytidine,[1],-0.3168
same,dATP,[1],0.2753
same,dGMP/AMP,[1],0.4942
same,fumarate,[1],0.3444
same,glucose-1/6-phosphate,[1],0.5114
same,glycerate,[1],0.0963
same,guanine,[1],0.1348
same,guanosine,[1],-0.1252
same,hypoxanthine,[1],0.2037
same,indole,[1],-0.0001746
same,inosine,[1],0.0653
same,2_3-Diphosphoglyceric acid,[1],0.1463
same,4-phosphopantothenate,[1],0.3013
same,6-phospho-D-gluconate,[1],0.08781
same,FMN,[1],-0.2862
same,IMP,[1],0.3406
same,Pyrophosphate,[1],0.1816
same,Sedoheptoluse bisphosphate,[1],0.1719
same,cyclic-AMP,[1],0.1868
same,glutathione disulfide,[1],0.1725
same,lactate,[1],0.1409
same,myo-inositol,[1],-0.8322
same,nicotinate,[1],0.07374
same,ornithine,[1],0.01544
same,phosphoenolpyruvate,[1],0.01685
same,pyruvate,[1],-0.07405
same,ribose-phosphate,[1],0.1875
same,sarcosine/alanine,[1],-0.13
same,sn-glycerol-3-phosphate,[1],-0.02611
same,succinate/methylmalonic acid,[1],0.1082
same,uridine,[1],0.1838
same,xanthosine,[1],0.13
same,EC50,P. falciparum,216 nM
Cc1cc(Nc2ccc(C)c(Cl)c2)n2nc(C(F)(F)F)nc2n1 [MMV665874],Acetyllysine,[1],-0.4022
same,N-acetyl-L-ornithine,[1],-0.2526
same,N-carbamoyl-L-aspartate,[1],4.028
same,NADPH,[1],0.1752
same,dAMP,[1],-0.05231
same,dCMP,[1],-0.05814
same,dTDP,[1],-1.343
same,dTMP,[1],-1.0853
same,dTTP,[1],-1.254
same,dihydroorotate,[1],5.397
same,orotate,[1],0.2167
same,DLH,[1],-0.1943
same,DLS/SDL/SID,[1],-0.1199
same,PD,[1],-0.005549
same,PEE,[1],-0.4065
same,PVNF,[1],-0.2835
same,3-phosphoglycerate,[1],0.03547
same,ADP-D-glucose,[1],0.02005
same,ATP,[1],0.1462
same,CDP,[1],-0.8722
same,D-sedoheptulose-1/7-phosphate,[1],-0.2118
same,FAD,[1],-0.01762
same,GMP,[1],0.4662
same,NAD+,[1],-0.1
same,NADP+,[1],-0.1197
same,Octoluse Bisphosphate,[1],0.03302
same,Pyroglutamic acid,[1],0.08116
same,UDP-D-glucose,[1],-0.2063
same,UDP-D-glucuronate,[1],-0.109
same,UDP-N-acetyl-glucosamine,[1],-0.4453
same,UDP,[1],-1.835
same,UMP,[1],-1.099
same,UTP,[1],-1.702
same,a-ketoglutarate,[1],-0.1317
same,citrate/isocitrate,[1],-0.1582
same,cytidine,[1],-0.03725
same,dATP,[1],0.3143
same,dGMP/AMP,[1],0.07446
same,fumarate,[1],-0.3892
same,glucose-1/6-phosphate,[1],0.2173
same,glycerate,[1],0.07615
same,guanine,[1],0.251
same,guanosine,[1],0.7775
same,hypoxanthine,[1],-0.1073
same,indole,[1],-0.01704
same,inosine,[1],-0.02522
same,2_3-Diphosphoglyceric acid,[1],0.1914
same,4-phosphopantothenate,[1],-0.3242
same,6-phospho-D-gluconate,[1],0.01162
same,FMN,[1],-0.4401
same,IMP,[1],-0.2175
same,Pyrophosphate,[1],0.07871
same,Sedoheptoluse bisphosphate,[1],0.06707
same,cyclic-AMP,[1],-0.1282
same,glutathione disulfide,[1],-0.03556
same,lactate,[1],-0.043
same,myo-inositol,[1],-0.09181
same,nicotinate,[1],-0.01808
same,ornithine,[1],0.04606
same,phosphoenolpyruvate,[1],0.07297
same,pyruvate,[1],0.2233
same,ribose-phosphate,[1],0.2644
same,sarcosine/alanine,[1],0.1358
same,sn-glycerol-3-phosphate,[1],0.2659
same,succinate/methylmalonic acid,[1],-1.091
same,uridine,[1],-0.8568
same,xanthosine,[1],-0.03941
same,EC50,P. falciparum,6.71 nM
